In US10722516B2, “Use of landiolol hydrochloride in the long-term treatment of tachyarrhythmias” (AOP Orphan Pharmaceuticals AG, priority 2013, dated 2020):
Entries after “also recorded” stand apart in the source; their conditions may differ. Structures can show the parent of a compound that is named as a salt.

Assays:
healthy volunteers = test: 24 h long-term infusion study, AOP LDLL600 against esmolol: heart rate; type: in vivo, human; details: for heart rate: Table 1
Protocol: A single centre prospective, randomized, double blind, crossover, pharmacokinetic, safety and tolerability study to compare long-term infusion administration of AOP LDLL600 against esmolol in healthy volunteers was performed.
Landiolol hydrochloride lyophilized (LDLL600) comprises 600 mg landiolol hydrochloride, 600 mg mannitol, pH 6.5. The primary packing of LDLL600 is 50 ml vial, the reconstitution volume is 50 ml and the final product concentration is 12 mg/mL landiolol HCl.
12 subjects were administered AOP LDLL600 or Esmolol (Brevibloc, 2500 mg/250 ml) in 1:1 ratio in double-blind, randomized, cross-over setting. PK, systemic cardiovascular and local tolerability and safety of the 24 h-long term infusions of three dose levels of both IMPs during each treatment period were assessed.
Landiolol was infused over 24 h in a dose of 10 μg/KG/min (2 hrs), followed by 20 μg/KG/min (2 hrs), followed by 40 μg/KG/min for 20 hrs.
Dosing algorithm was body weight divided by 20, 10 and 5 in ml/h giving 10, 20 and 40 μg/KG/min at a concentration of 12 mg/ml. No severe adverse drug reactions, mild local reactions, 1 severe local reaction (Esmolol High Dose).
Landiolol was infused over 24 h in a dose of 10, 20 and 40 μg/KG/min, i.e. 10 μg/KG/min landiolol were administered for 2 hrs, followed by 2 hrs administration of 20 μg/KG/min and further followed by 20 hrs administration of 40 μg/KG/min.
Post-infusion follow up measurements were performed immediately after 20 hrs administration study, i.e. 2, 4 min etc. after stop of landiolol administration.

[1] = in vivo; cited from earlier work
[2] = LD infusion (landiolol 10, esmolol 50 μg/kg/min), 4 min
[3] = LD infusion (landiolol 10, esmolol 50 μg/kg/min), 6 min
[4] = LD infusion (landiolol 10, esmolol 50 μg/kg/min), 8 min
[5] = LD infusion (landiolol 10, esmolol 50 μg/kg/min), 12 min
[6] = LD infusion (landiolol 10, esmolol 50 μg/kg/min), 16 min
[7] = LD infusion (landiolol 10, esmolol 50 μg/kg/min), 20 min
[8] = LD infusion (landiolol 10, esmolol 50 μg/kg/min), 30 min
[9] = LD infusion (landiolol 10, esmolol 50 μg/kg/min), 60 min
[10] = LD infusion (landiolol 10, esmolol 50 μg/kg/min), 90 min
[11] = LD infusion (landiolol 10, esmolol 50 μg/kg/min), 2 h
[12] = MD infusion (landiolol 20, esmolol 100 μg/kg/min, after 2 h LD), 2 min
[13] = MD infusion (landiolol 20, esmolol 100 μg/kg/min, after 2 h LD), 3 min
[14] = MD infusion (landiolol 20, esmolol 100 μg/kg/min, after 2 h LD), 4 min
[15] = MD infusion (landiolol 20, esmolol 100 μg/kg/min, after 2 h LD), 6 min
[16] = MD infusion (landiolol 20, esmolol 100 μg/kg/min, after 2 h LD), 8 min
[17] = MD infusion (landiolol 20, esmolol 100 μg/kg/min, after 2 h LD), 16 min
[18] = MD infusion (landiolol 20, esmolol 100 μg/kg/min, after 2 h LD), 20 min
[19] = MD infusion (landiolol 20, esmolol 100 μg/kg/min, after 2 h LD), 30 min
[20] = MD infusion (landiolol 20, esmolol 100 μg/kg/min, after 2 h LD), 60 min
[21] = MD infusion (landiolol 20, esmolol 100 μg/kg/min, after 2 h LD), 90 min
[22] = MD infusion (landiolol 20, esmolol 100 μg/kg/min, after 2 h LD), 2 h

COC(=O)CCc1ccc(OCC(O)CNC(C)C)cc1 (stereo not drawn) [Esmolol, Esmolol hydrochloride]
change of heart rate from predose, Mean (SD) (healthy volunteers; [2]): −2.1 (7.64) beats per minute | heart rate, Mean (SD) (healthy volunteers; [2]): 65.6 (6.44) beats per minute | change of heart rate from predose, Mean (SD) (healthy volunteers; [3]): −1.6 (5.96) beats per minute | heart rate, Mean (SD) (healthy volunteers; [3]): 66.0 (4.52) beats per minute | change of heart rate from predose, Mean (SD) (healthy volunteers; [4]): −2.1 (7.05) beats per minute | heart rate, Mean (SD) (healthy volunteers; [4]): 65.5 (4.35) beats per minute | change of heart rate from predose, Mean (SD) (healthy volunteers; [5]): −2.4 (6.77) beats per minute | heart rate, Mean (SD) (healthy volunteers; [5]): 65.2 (4.74) beats per minute | change of heart rate from predose, Mean (SD) (healthy volunteers; [6]): −2.3 (7.58) beats per minute | heart rate, Mean (SD) (healthy volunteers; [6]): 65.4 (5.51) beats per minute | change of heart rate from predose, Mean (SD) (healthy volunteers; [7]): −2.0 (9.49) beats per minute | heart rate, Mean (SD) (healthy volunteers; [7]): 65.6 (7.07) beats per minute | change of heart rate from predose, Mean (SD) (healthy volunteers; [8]): −5.1 (6.29) beats per minute | heart rate, Mean (SD) (healthy volunteers; [8]): 62.6 (5.05) beats per minute | change of heart rate from predose, Mean (SD) (healthy volunteers; [9]): −4.1 (8.00) beats per minute | heart rate, Mean (SD) (healthy volunteers; [9]): 63.6 (4.67) beats per minute | change of heart rate from predose, Mean (SD) (healthy volunteers; [10]): −3.5 (6.55) beats per minute | heart rate, Mean (SD) (healthy volunteers; [10]): 64.1 (4.99) beats per minute | change of heart rate from predose, Mean (SD) (healthy volunteers; [11]): −3.9 (7.12) beats per minute | heart rate, Mean (SD) (healthy volunteers; [11]): 63.8 (4.89) beats per minute | change of heart rate from predose, Mean (SD) (healthy volunteers; MD Predose (end of 2 h LD)): −3.9 (7.12) beats per minute | heart rate, Mean (SD) (healthy volunteers; MD Predose (end of 2 h LD)): 63.8 (4.89) beats per minute | change of heart rate from predose, Mean (SD) (healthy volunteers; [12]): −4.3 (10.36) beats per minute | heart rate, Mean (SD) (healthy volunteers; [12]): 63.4 (7.88) beats per minute | change of heart rate from predose, Mean (SD) (healthy volunteers; [13]): −5.1 (8.40) beats per minute | heart rate, Mean (SD) (healthy volunteers; [13]): 62.6 (5.50) beats per minute | change of heart rate from predose, Mean (SD) (healthy volunteers; [14]): −2.7 (8.96) beats per minute | heart rate, Mean (SD) (healthy volunteers; [14]): 64.9 (9.04) beats per minute | change of heart rate from predose, Mean (SD) (healthy volunteers; [15]): −3.8 (7.45) beats per minute | heart rate, Mean (SD) (healthy volunteers; [15]): 63.9 (5.10) beats per minute | change of heart rate from predose, Mean (SD) (healthy volunteers; [16]): −5.6 (7.54) beats per minute | heart rate, Mean (SD) (healthy volunteers; [16]): 62.1 (4.46) beats per minute | heart rate, Mean (SD) (healthy volunteers; MD infusion (landiolol 20, esmolol 100 μg/kg/min, after 2 h LD), 12 min): 61.8 (5.07) beats per minute | change of heart rate from predose, Mean (SD) (healthy volunteers; [17]): −3.5 (7.14) beats per minute | heart rate, Mean (SD) (healthy volunteers; [17]): 64.1 (5.02) beats per minute | change of heart rate from predose, Mean (SD) (healthy volunteers; [18]): −5.0 (7.34) beats per minute | heart rate, Mean (SD) (healthy volunteers; [18]): 62.6 (4.33) beats per minute | change of heart rate from predose, Mean (SD) (healthy volunteers; [19]): −5.6 (8.20) beats per minute | heart rate, Mean (SD) (healthy volunteers; [19]): 62.1 (5.00) beats per minute | change of heart rate from predose, Mean (SD) (healthy volunteers; [20]): −1.4 (10.41) beats per minute | heart rate, Mean (SD) (healthy volunteers; [20]): 66.2 (5.04) beats per minute | change of heart rate from predose, Mean (SD) (healthy volunteers; [21]): −2.2 (8.59) beats per minute | heart rate, Mean (SD) (healthy volunteers; [21]): 65.4 (6.17) beats per minute | change of heart rate from predose, Mean (SD) (healthy volunteers; [22]): −3.9 (7.75) beats per minute | heart rate, Mean (SD) (healthy volunteers; [22]): 63.7 (4.86) beats per minute | heart rate, Mean (SD) (healthy volunteers; Predose (before first IMP administration)): 67.6 (7.87) beats per minute | heart rate (healthy volunteers; Control (before administration)): 67 beats per minute | heart rate (healthy volunteers; high dose (landiolol 40, esmolol 200 μg/kg/min), time 720 min): 67.9 beats per minute | heart rate (healthy volunteers; high dose (landiolol 40, esmolol 200 μg/kg/min), time 1200 min): 67.9 beats per minute | heart rate (healthy volunteers; low dose (landiolol 10, esmolol 50 μg/kg/min), time 12 min): 65.2 beats per minute | heart rate (healthy volunteers; low dose (landiolol 10, esmolol 50 μg/kg/min), time 16 min): 65.4 beats per minute | heart rate (healthy volunteers; low dose (landiolol 10, esmolol 50 μg/kg/min), time 30 min): 62.6 beats per minute | heart rate (healthy volunteers; low dose (landiolol 10, esmolol 50 μg/kg/min), time 60 min): 63.6 beats per minute | heart rate (healthy volunteers; low dose (landiolol 10, esmolol 50 μg/kg/min), time 120 min): 63.8 beats per minute | heart rate (healthy volunteers; medium dose (landiolol 20, esmolol 100 μg/kg/min), time 240 min): 63.7 beats per minute | heart rate (healthy volunteers; time after administration 12 min (end at 1440 min)): 74.7 beats per minute | heart rate (healthy volunteers; time after administration 16 min): 74 beats per minute | heart rate (healthy volunteers; time after administration 30 min): 76.8 beats per minute | heart rate (healthy volunteers; time after administration 60 min): 73.1 beats per minute | heart rate (healthy volunteers; time after administration 120 min): 70.2 beats per minute | overshoot effect on heart rate (healthy volunteers; after termination of long term administration, hydrochloride): the heart rate and blood pressure raise immediately over control values; also recorded: significant tolerance and overshoot effect | additive effect of raising the dose (tolerance state) (healthy volunteers; esmolol MD, HD): does not provide any additive effect | heart rate effect during administration (healthy volunteers; long term administration): relative increase of the heart rate and blood pressure already after 60 minutes of administration | tolerance effect (healthy volunteers; long term administration): significant tolerance and overshoot effect | remark on heart rate response after infusion stop (healthy volunteers; remark column of Table 2, FU time points 20 h 6 min to 21 h): overshoot | remark on heart rate response during infusion (healthy volunteers; remark column of Table 2, time points MD 60 min to HD 20 h (end)): Tolerance state | alpha-distribution half-life [1]: approximately 2 minutes | total body clearance relative to cardiac output [1]: ~3 times | total body clearance relative to hepatic blood flow [1]: ~14 times
